From the supplement of paper PMC11368000

How the values were obtained:
Settings in all cases: exposure time: 90 min
1083 [1] = donor line of iPSC-derived cardiomyocytes; assay: POD (EC95) for loss of peak frequency (asystole) vs vehicle; higher = less potent (higher point of departure)
Method: (§1)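 Human iPSC-derived cardiomyocytes from 16 donors were exposed for 90 min at 37 °C to each PFAS at 0.1, 1, 10 and 100 µM in 0.5% DMSO, 384-well plates. Kinetic Ca2+ flux (FLIPR) and Hoechst nuclei counts were normalised to vehicle wells and fitted with a hierarchical Bayesian Hill model to give donor-specific PODs: EC05 for beat-rate increase or decrease and for decay-to-rise ratio increase (QT proxy), EC95 for peak-frequency loss (asystole), EC10 for total cell number loss. 0.03 µM is the lower bound.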

11235 [2] = donor line of iPSC-derived cardiomyocytes; assay: as above
Method: as §1

1368 [3] = donor line of iPSC-derived cardiomyocytes; assay: as above
Method: as §1

1434 [4] = donor line of iPSC-derived cardiomyocytes; assay: as above
Method: as §1

1535 [5] = donor line of iPSC-derived cardiomyocytes; assay: as above
Method: as §1

20032 [6] = donor line of iPSC-derived cardiomyocytes; assay: as above
Method: as §1

20084 [7] = donor line of iPSC-derived cardiomyocytes; assay: as above
Method: as §1

30145 = donor line of iPSC-derived cardiomyocytes; assay: as above
Method: as §1

30171 = donor line of iPSC-derived cardiomyocytes; assay: as above
Method: as §1

1083 [8] = assay: POD (EC10) for decrease in total cell number (cytotoxicity) vs vehicle; higher = less potent (higher point of departure)
In short: (§2)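 Human iPSC-derived cardiomyocytes from 16 donors were cultured 14 days in 384-well plates, then exposed for 90 min at 37 °C to 0.1, 1, 10 and 100 µM (final, 0.5% DMSO). After the Ca2+ flux read, cells were stained 15 min with Hoechst 33342 (2.2 µg/mL) and MitoTracker Orange and imaged at 10× on an ImageXpress Micro Confocal. Nuclei were counted per field in MetaXpress. Donor-specific cytotoxicity points of departure came from hierarchical Bayesian Hill fits to vehicle-normalised counts, using a 10% decrease.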

1118 = donor line of iPSC-derived cardiomyocytes; assay: as above
In short: as §2

11235 [9] = assay: as above
In short: as §2

1368 [10] = assay: as above
In short: as §2

1434 [11] = assay: as above
In short: as §2

1518 = donor line of iPSC-derived cardiomyocytes; assay: as above
In short: as §2

1531 = donor line of iPSC-derived cardiomyocytes; assay: as above
In short: as §2

1535 [12] = assay: as above
In short: as §2

1565 = donor line of iPSC-derived cardiomyocytes; assay: as above
In short: as §2

20032 [13] = assay: as above
In short: as §2

20084 [14] = assay: as above
In short: as §2

| Structure (SMILES) | POD vs vehicle 1083 [1] [µM] | POD vs vehicle 11235 [2] [µM] | POD vs vehicle 1368 [3] [µM] | POD vs vehicle 1434 [4] [µM] | POD vs vehicle 1535 [5] [µM] | POD vs vehicle 20032 [6] [µM] | POD vs vehicle 20084 [7] [µM] | POD vs vehicle 30145 [µM] | POD vs vehicle 30171 [µM] | POD vs vehicle 1083 [8] [µM] | POD vs vehicle 1118 [µM] | POD vs vehicle 11235 [9] [µM] | POD vs vehicle 1368 [10] [µM] | POD vs vehicle 1434 [11] [µM] | POD vs vehicle 1518 [µM] | POD vs vehicle 1531 [µM] | POD vs vehicle 1535 [12] [µM] | POD vs vehicle 1565 [µM] | POD vs vehicle 20032 [13] [µM] | POD vs vehicle 20084 [14] [µM] |
| --- | --- | --- | --- | --- | --- | --- | --- | --- | --- | --- | --- | --- | --- | --- | --- | --- | --- | --- | --- | --- |
| O=C(O)C(F)(F)C(F)(F)F [Perfluoropropanoic_acid] | > 100 | > 100 | > 100 | > 100 | > 100 | > 100 | > 100 | > 100 | > 100 | > 100 | > 100 | > 100 | > 100 | > 100 | > 100 | > 100 | > 100 | > 100 | > 100 | > 100 |
| O=C(O)C(F)(F)C(F)(F)C(F)(F)OC(F)(F)F [Perfluoro(4-methoxybutanoic)_acid] | > 100 | > 100 | > 100 | > 100 | > 100 | > 100 | > 100 | > 100 | > 100 | > 100 | > 100 | > 100 | > 100 | > 100 | > 100 | > 100 | > 100 | > 100 | > 100 | > 100 |
| O=S(=O)(O)CCC(F)(F)C(F)(F)C(F)(F)C(F)(F)C(F)(F)C(F)(F)F [6:2 Fluorotelomer sulfonic acid] | > 100 | > 100 | > 100 | > 100 | > 100 | > 100 | > 100 | > 100 | > 100 | > 100 | > 100 | > 100 | > 100 | > 100 | > 100 | > 100 | > 100 | > 100 | > 100 | > 100 |
| O=C(O)CCC(F)(F)C(F)(F)C(F)(F)C(F)(F)C(F)(F)C(F)(F)C(F)(F)F [3-Perfluoroheptylpropanoic_acid] | > 100 | 84.8 | > 100 | 90.9 | > 100 | > 100 | > 100 | > 100 | > 100 | > 100 | > 100 | > 100 | > 100 | > 100 | > 100 | > 100 | > 100 | > 100 | > 100 | > 100 |
| O=C(O)C=CC(F)(C(F)(F)F)C(F)(F)F [3-(Perfluoroisopropyl)-2-propenoic_acid] | > 100 | > 100 | > 100 | > 100 | > 100 | > 100 | > 100 | > 100 | > 100 | > 100 | > 100 | > 100 | > 100 | > 100 | > 100 | > 100 | > 100 | > 100 | > 100 | > 100 |
